According to US20210009542A1 (Calico Life Sciences LLC, priority 2018, published 2021):
pIC50: −log10 of the molar value. Read-outs that look alike come from different tables or passages of the source.

What was measured:
[1] = target: T1, His tagged PTPN2 (TC45) protein (Homo sapiens, UniProt P17706); assay: Mobility shift assay (MSA) for potency of PTPN2 inhibitors; assay type: biochemical; conditions: read-out: PTPN2 MSA IC50
T1 construct: made in house
T1 sequence (P17706 with tags, fused parts or gaps isoform P17706-2): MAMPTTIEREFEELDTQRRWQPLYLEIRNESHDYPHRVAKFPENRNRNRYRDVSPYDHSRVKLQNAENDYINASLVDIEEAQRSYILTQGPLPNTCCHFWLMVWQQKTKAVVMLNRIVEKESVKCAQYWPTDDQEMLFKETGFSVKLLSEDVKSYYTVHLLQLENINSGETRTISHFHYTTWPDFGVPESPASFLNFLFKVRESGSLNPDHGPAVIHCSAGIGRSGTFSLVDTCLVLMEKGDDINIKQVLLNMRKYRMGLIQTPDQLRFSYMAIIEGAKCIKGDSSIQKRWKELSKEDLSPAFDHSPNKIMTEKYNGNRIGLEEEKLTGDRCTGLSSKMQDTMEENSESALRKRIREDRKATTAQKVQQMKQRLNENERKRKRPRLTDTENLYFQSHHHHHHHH
How it was run: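 His-tagged PTPN2 TC45 (0.5 nM) was preincubated with compound (12-point, 1:3) for 10 min at room temperature in 50 mM HEPES pH 7.5, 1 mM EGTA, 10 mM EDTA, 0.01% Tween 20, 2 mM DTT. OG488-labelled phospho-insulin-receptor peptide ([…]) was then added for 10 min. After quenching, dephosphorylation was measured by microfluidic mobility shift and IC50 derived from % inhibition.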

[2] = test system: B16F10 mouse melanoma cells; assay: B16F10 IFNγ-induced cellular growth inhibition assay; assay type: cell-based; conditions: Mus musculus, B16-F10, 33 μM compound
How it was run: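 B16F10 cells (500/well, DMEM + 10% FBS) dosed in triplicate at 100 μM to 0.001 μM (0.1% DMSO) with or without 0.5 ng/mL final mouse IFNγ. Confluence imaged every 6 h for 5 days; % growth inhibition calculated versus DMSO/with-IFNγ control once DMSO/no-IFNγ wells exceeded 95% confluence.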

[3] = target: T2, His tagged full-length PTP1B protein (Homo sapiens, UniProt P18031); assay: Mobility shift assay (MSA) for potency of PTP1B inhibitors; assay type: biochemical
T2 construct: made in house
T2 sequence (P18031 with tags, fused parts or gaps): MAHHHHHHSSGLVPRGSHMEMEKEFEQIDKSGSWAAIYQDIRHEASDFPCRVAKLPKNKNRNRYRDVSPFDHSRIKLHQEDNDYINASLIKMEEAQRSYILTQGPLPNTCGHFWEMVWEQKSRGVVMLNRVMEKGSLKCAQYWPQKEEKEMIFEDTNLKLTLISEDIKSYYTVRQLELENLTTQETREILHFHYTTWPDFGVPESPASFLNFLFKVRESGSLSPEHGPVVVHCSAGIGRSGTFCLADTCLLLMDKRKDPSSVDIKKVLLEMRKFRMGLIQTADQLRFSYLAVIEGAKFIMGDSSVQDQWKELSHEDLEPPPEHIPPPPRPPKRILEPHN
Description: The enzymatic assay used to determine activity is a mobility shift assay using a LabChip EZ Reader by Caliper Life Sciences. The enzymatic reaction was carried out in assay buffer (50 mM HEPES pH 7.5, 1 mM EGTA, 10 mM EDTA, 0.01% Tween® 20, and 2 mM DTT). […] The enzyme (at 0.5 nM) was incubated with compound for 10 minutes at room temperature. […] The % inhibition was then used to calculate the IC50 values.

[4] = +0.5 ng/mL IFNγ, relative to DMSO control, read-out: % B16F10 growth inhibition (+0.5 ng/mL IFNγ) @ 33 μM
[5] = no IFNγ, read-out: % B16F10 growth inhibition (no IFNγ) @ 33 μM

Row | Compound | pIC50 [1] | inhibition at 33 µM [2, 4] | inhibition at 33 µM [2, 5] | pIC50 [3]
1 | CC[C@H]1C[C@@H]1COc1ccc2cc(O)c(N3CC(=O)NS3(=O)=O)c(F)c2c1 (racemic) [Compound 218, 5-(7-{[rac-(1R,2R)-2-ethylcyclopropyl]methoxy}-1-fluoro-3-hydroxynaphthalen-2-yl)-1λ^6,2,5-thiadiazolidine-1,1,3-trione] | 8.00 to 9.00 | 25 to 59% | < 25% | 8.00 to 9.00
2 | O=C1CN(c2c(O)cc3ccc([C@@H]4CCNC4)cc3c2F)S(=O)(=O)N1 (single isomer, unassigned) [Compound 232] | 8.00 to 9.00 |  |  | 7.00 to 8.00
3 | O=C1CN(c2c(O)cc3ccc([C@H]4CCNC4)cc3c2F)S(=O)(=O)N1 (single isomer, unassigned) [Compound 233] | 8.00 to 9.00 |  |  | 7.00 to 8.00
4 | O=C1CN(c2c(O)cc3ccc(C4CCN(S(=O)(=O)C5CC5)C4)cc3c2F)S(=O)(=O)N1 (stereo not shown) [Compound 101, 5-{7-[1-(cyclopropanesulfonyl)pyrrolidin-3-yl]-1-fluoro-3-hydroxynaphthalen-2-yl}-1λ^6,2,5-thiadiazolidine-1,1,3-trione] | > 9.00 | 60 to 90% | < 25% | 8.00 to 9.00
5 | O=C1CN(c2c(O)cc3ccc(C4CCNC4)cc3c2F)S(=O)(=O)N1 (stereo not shown) [Compound 102, 5-[1-fluoro-3-hydroxy-7-(pyrrolidin-3-yl)naphthalen-2-yl]-1λ^6,2,5-thiadiazolidine-1,1,3-trione] | 8.00 to 9.00 | 60 to 90% | < 25% | 7.00 to 8.00
6 | CC(O)COc1ccc2cc(O)c(N3CC(=O)NS3(=O)=O)c(F)c2c1 (stereo not shown) [Compound 135, 5-[1-fluoro-3-hydroxy-7-(2-hydroxypropoxy)naphthalen-2-yl]-1λ^6,2,5-thiadiazolidine-1,1,3-trione] | 8.00 to 9.00 |  |  | 7.00 to 8.00
7 | CC(COc1ccc2cc(O)c(N3CC(=O)NS3(=O)=O)c(F)c2c1)C1CC1 (stereo not shown) [Compound 171, 5-[7-(2-cyclopropylpropoxy)-1-fluoro-3-hydroxynaphthalen-2-yl]-1λ^6,2,5-thiadiazolidine-1,1,3-trione] | > 9.00 |  |  | 7.00 to 8.00
8 | CS(=O)(=O)N1CCC(COc2ccc3cc(O)c(N4CC(=O)NS4(=O)=O)c(F)c3c2)C1 (stereo not shown) [Compound 173, 5-(1-fluoro-3-hydroxy-7-{[1-(methanesulfonyl)pyrrolidin-3-yl]methoxy}naphthalen-2-yl)-1,2,5-thiadiazolidine-1,1,3-trione] | > 9.00 |  |  | 7.00 to 8.00
9 | O=C1CN(c2c(O)cc3ccc(C4CCCN(S(=O)(=O)C5CC5)C4)cc3c2F)S(=O)(=O)N1 (stereo not shown) [Compound 186, 5-{7-[1-(cyclopropanesulfonyl)piperidin-3-yl]-1-fluoro-3-hydroxynaphthalen-2-yl}-1λ^6,2,5-thiadiazolidine-1,1,3-trione] | 8.00 to 9.00 |  |  | 7.00 to 8.00
10 | O=C1CN(c2c(O)cc3ccc(C4CCCN4C(=O)C4CC4)cc3c2F)S(=O)(=O)N1 (stereo not shown) [Compound 187, 5-{7-[1-(cyclopropanecarbonyl)pyrrolidin-2-yl]-1-fluoro-3-hydroxynaphthalen-2-yl}-1λ^6,2,5-thiadiazolidine-1,1,3-trione] | 8.00 to 9.00 |  |  | 7.00 to 8.00
11 | O=C1CN(c2c(O)cc3ccc(C4CCCN4S(=O)(=O)C4CC4)cc3c2F)S(=O)(=O)N1 (stereo not shown) [Compound 189, 5-{7-[1-(cyclopropanesulfonyl)pyrrolidin-2-yl]-1-fluoro-3-hydroxynaphthalen-2-yl}-1λ^6,2,5-thiadiazolidine-1,1,3-trione] | 8.00 to 9.00 |  |  | 7.00 to 8.00
12 | CC(C)(C)CC1CCN(c2ccc3cc(O)c(N4CC(=O)NS4(=O)=O)c(F)c3c2)C1 (stereo not shown) [Compound 220, 5-{7-[3-(2,2-dimethylpropyl)pyrrolidin-1-yl]-1-fluoro-3-hydroxynaphthalen-2-yl}-1λ^6,2,5-thiadiazolidine-1,1,3-trione] | 7.00 to 8.00 |  |  | < 7.00
13 | O=C1CN(c2c(O)cc3ccc(C(CO)CCl)cc3c2F)S(=O)(=O)N1 (stereo not shown) [Compound 221, 5-[7-(1-chloro-3-hydroxypropan-2-yl)-1-fluoro-3-hydroxynaphthalen-2-yl]-1λ^6,2,5-thiadiazolidine-1,1,3-trione] | 7.00 to 8.00 |  |  | < 7.00
14 | O=C1CN(c2c(O)cc3ccc(C4CCN(CC5CC5)C4)cc3c2F)S(=O)(=O)N1 (stereo not shown) [Compound 222, 5-{7-[1-(cyclopropylmethyl)pyrrolidin-3-yl]-1-fluoro-3-hydroxynaphthalen-2-yl}-1λ^6,2,5-thiadiazolidine-1,1,3-trione] | < 7.00 |  |  | 7.00 to 8.00
15 | O=C1CN(c2c(O)cc3ccc(C4CCCN4)cc3c2F)S(=O)(=O)N1 (stereo not shown) [Compound 258, 5-[1-fluoro-3-hydroxy-7-(pyrrolidin-2-yl)naphthalen-2-yl]-1λ^6,2,5-thiadiazolidine-1,1,3-trione] | 8.00 to 9.00 |  |  | 7.00 to 8.00
16 | O=C1CN(c2c(O)cc3ccc(CC4CCNC4)cc3c2F)S(=O)(=O)N1 (stereo not shown) [Compound 262, 5-{1-fluoro-3-hydroxy-7-[(pyrrolidin-3-yl)methyl]naphthalen-2-yl}-1λ^6,2,5-thiadiazolidine-1,1,3-trione] | 8.00 to 9.00 |  |  | 7.00 to 8.00
17 | O=C1CN(c2c(O)cc3ccc(OC(CO)CCl)cc3c2F)S(=O)(=O)N1 (stereo not shown) [Compound 272, 5-{7-[(1-chloro-3-hydroxypropan-2-yl)oxy]-1-fluoro-3-hydroxynaphthalen-2-yl}-1λ^6,2,5-thiadiazolidine-1,1,3-trione] | 8.00 to 9.00 |  |  | 7.00 to 8.00
18 | O=C1CN(c2c(O)cc3ccc(C4=CCN(S(=O)(=O)C5CCOC5)C4)cc3c2F)S(=O)(=O)N1 (stereo not shown) [Compound 285, 5-{1-fluoro-3-hydroxy-7-[1-(oxolane-3-sulfonyl)-2,5-dihydro-1H-pyrrol-3-yl]naphthalen-2-yl}-1λ^6,2,5-thiadiazolidine-1,1,3-trione] | > 9.00 |  |  | 8.00 to 9.00
19 | CCCS(=O)(=O)N1CC=C(c2ccc3cc(O)c(N4CC(=O)NS4(=O)=O)c(F)c3c2)C1 [Compound 288] | > 9.00 |  |  | > 9.00
20 | O=C1CN(c2c(O)cc3ccc(C4=CCN(S(=O)(=O)CC5CCCCO5)C4)cc3c2F)S(=O)(=O)N1 (stereo not shown) [Compound 289, 5-(1-fluoro-3-hydroxy-7-{1-[(oxan-2-yl)methanesulfonyl]-2,5-dihydro-1H-pyrrol-3-yl}naphthalen-2-yl)-1λ^6,2,5-thiadiazolidine-1,1,3-trione] | > 9.00 |  |  | > 9.00
21 | O=C1CN(c2c(O)cc3ccc(C4=CCN(S(=O)(=O)CC5COCCO5)C4)cc3c2F)S(=O)(=O)N1 (stereo not shown) [Compound 292, 5-(7-{1-[(1,4-dioxan-2-yl)methanesulfonyl]-2,5-dihydro-1H-pyrrol-3-yl}-1-fluoro-3-hydroxynaphthalen-2-yl)-1λ^6,2,5-thiadiazolidine-1,1,3-trione] | > 9.00 |  |  | > 9.00
22 | CCCC(C)S(=O)(=O)N1CC=C(c2ccc3cc(O)c(N4CC(=O)NS4(=O)=O)c(F)c3c2)C1 (stereo not shown) [Compound 294, 5-{1-fluoro-3-hydroxy-7-[1-(pentane-2-sulfonyl)-2,5-dihydro-1H-pyrrol-3-yl]naphthalen-2-yl}-1λ^6,2,5-thiadiazolidine-1,1,3-trione] | > 9.00 |  |  | > 9.00
23 | CC(C)S(=O)(=O)N1CCC(c2ccc3cc(O)c(N4CC(=O)NS4(=O)=O)c(F)c3c2)C1 (stereo not shown) [Compound 308, 5-{1-fluoro-3-hydroxy-7-[1-(propane-2-sulfonyl)pyrrolidin-3-yl]naphthalen-2-yl}-1λ^6,2,5-thiadiazolidine-1,1,3-trione] | > 9.00 |  |  | 8.00 to 9.00
